Read-outs that look alike come from different tables or passages of the source.

These results are taken from patent US20100028259A1, “USE OF ORGANIC CATION TRANSPORTERS FOR CANCER DIAGNOSIS AND THERAPY” (The Regents of the University of California, priority 2006, published 2010).

One data set concerns MDCK-MOCK cells. In words: MTT drug sensitivity assay in MDCK-MOCK cells. The data set is classed as cell-based, canine. On the procedure: (§1) Cytotoxicity of the platinum-based compounds was measured by MTT (thiazolyl blue tetrazolium bromide) assay. Cells were seeded in 100 μl of the culture medium without any antibiotics in 96-well plates at a predetermined cell density. For HEK 293 cells, poly-D-lysine coated plates were used. After overnight incubation, the platinum-based compounds were then added to the culture medium to give the indicated final concentrations. For the OCT inhibitor studies, the inhibitors (i.e., disopyramide or cimetidine) were added to the medium at a specified concentration immediately before the addition of the platinum-based compounds. After incubation for a specified time period, the drug-containing medium was replaced with fresh, drug-free medium and the incubation was continued for a total of 72 hours (start from the addition of platinum-based compounds). Then, the MTT assay was performed similarly as described in Alley et al., Cancer Res., 48:589-601 (1988). […] The maximal cell growth was the cell growth in the medium without any platinum-based compounds; C is the concentration of the platinum-based compound, and γ is the slope factor.
Briefly, the cells were seeded in 96-well plates at a density of 5,000 cells/well for the transfected MDCK cells or 12,000 cells/well for the transfected HEK 293 cells. The platinum-based drugs were added on the following day. After the specified time periods of drug exposure, the drug-containing medium was replaced with fresh, drug-free medium, and the incubation was continued for a total of 72 hours (start from the time when the drug was added). After incubation, the cell growth was determined by an MTT assay. Data are expressed as mean±SD from 3 to 6 independent experiments with each performed in quadruplicate. The resistance factor (RF) was defined as the ratio of the mean IC50 value in the MOCK cells to that in the OCT-transfected cells.
Briefly, MDCK cells were seeded at a density of 5,000 cells/well in 96-well plates and exposed to the test compounds for 7 hours on the following day. After incubation for a total of 72 hours, the cell growth was determined by an MTT assay. The data for carboplatin was taken from Table 1 and was not determined simultaneously with the other compounds. The resistance factor (RF) was defined as the ratio of the mean IC50 value in MDCK-MOCK cells to that in MDCK-hOCT1 cells. Data are expressed as mean±SD from six measurements, and each measurement was performed in quadruplicate.

The subject of a further data set is MDCK-hOCT1 cells. The experiment in a line: Cellular accumulation of platinum in MDCK-hOCT1 cells (ICP-MS). The data set is classed as in vitro ADME, canine. The following applies: 2-hr exposure. On the procedure: For the inhibitor studies, the incubation medium also contained disopyramide (150 μM). […] For the inhibitor studies, the incubation medium also contained cimetidine (1.5 mM). […] After drug exposure, the cells were washed with ice-cold PBS three times and harvested by scraping and centrifugation. The cell-associated platinum was determined by ICP-MS and normalized for protein content. Data are expressed as mean±SD from a single experiment performed in triplicate. Experiments were replicated for OCT1 and OCT2, and similar results were obtained.
The cellular accumulation of platinum was determined as described in Holzer et al., Mol. Pharmacol., 66:817-823 (2004) with some modifications. Briefly, the cells were grown in 100 mm×20 mm dishes in the culture medium without any antibiotics to over 90% confluence. For HEK 293 cells, poly-D-lysine coated dishes were used. For platinum accumulation, the cells were incubated in the culture medium containing the indicated concentrations of the platinum compounds at 37° C. in 5% CO2 for 2 hr unless specified. After incubation, the dishes were immediately placed on ice and the cells were washed with 6 ml of ice-cold PBS for three times and collected with a rubber policeman. The cell pellets were obtained by centrifugation at 400×g and at 4° C. for 15 min. For the OCT inhibitor studies, the incubation medium also contained the indicated inhibitor (i.e., disopyramide or cimetidine) in addition to the platinum-based compounds. The resulting cell pellets were then dissolved into 200 μl of 70% nitric acid at 65° C. for at least 2.5 hours, and then distilled water containing 10 ppb of iridium (Sigma) and 0.1% Triton X-100 was added to the samples to dilute nitric acid to 7%. The platinum content was measured by inductively plasma coupled mass spectrometry (ICP-MS) in the Analytical Facility at the University of California at Santa Cruz (Santa Cruz, Calif.). Cell lysates from a set of identical cultures were used for BCA protein assay.

The test system of the next data set is LS180. In words: MTT drug sensitivity, colon cancer cell line LS180. In kind it is cell-based, human. How it is done:
as §1, with “After overnight incubation, the platinum-based compounds were then added to the culture medium to give the indicated final concentrations.” left out
The cell seeding density was 6,000-, 8,000-, 6,000-, 15,000-12,000- and 4,000 cells/well for HCT116, HT29, RKO, SW620, LS180, and DLD cells, respectively. When cimetidine (1.5 mM) was used, it was added to the wells immediately before the addition of the platinum-based drugs. The resistance factor (RF) was defined as the ratio of the mean IC50 value in the presence to that in the absence of cimetidine. Data are expressed as mean±SD from six measurements, and each measurement was performed in quadruplicate.

For `O=C1[O][Pt]2([NH][C@@H]3CCCC[C@H]3[NH]2)[O]C1=O` [oxaliplatin], the IC50 in the data set with MDCK-MOCK cells (SAR study Table 4, 7 hours of drug exposure, read-out: IC50 MDCK-MOCK) was 10.9 ± 3.66 µM; with MDCK-MOCK cells (co-incubation with disopyramide 150 μM, read-out: IC50 in MDCK-MOCK, disopyramide-treated) it was 32.2 ± 13 µM; with MDCK-MOCK cells (disopyramide study (FIG. 2D), without disopyramide, read-out: IC50 in MDCK-MOCK, control) it was 30.4 ± 9.28 µM; in the data set on MDCK-MOCK cells (drug exposure 7 hour, MTT at 72 hours, Table 1, read-out: IC50 MDCK-MOCK) it was 33 ± 9.12 µM; with MDCK-MOCK cells (drug exposure 24 hour, MTT at 72 hours, Table 1, read-out: IC50 MDCK-MOCK), 14.3 ± 5.55 µM; with MDCK-MOCK cells (drug exposure 72 hour, Table 1, read-out: IC50 MDCK-MOCK), 9.64 ± 1.85 µM. Also, the concentration for half-maximal inhibition (IC50) in the data set with LS180 (LS180, absence of cimetidine, read-out: IC50 Control) was 1.3 ± 0.41 µM; in the data set with LS180 (LS180, cimetidine 1.5 mM, read-out: IC50 Cimetidine-treated) it was 8.39 ± 2.77 µM. For the same molecule, the “cellular platinum accumulation rate in MDCK-hOCT1, disopyramide-treated” value in the data set on MDCK-hOCT1 cells (3 μM, disopyramide 150 μM) turned out to be 4.04±0.04 pmol/mg protein-hr. For the same molecule, the “cellular platinum accumulation rate in MDCK-hOCT1” value in the data set with MDCK-hOCT1 cells (drug 3 μM) came to 8.53±0.52 pmol/mg protein-hr. In addition, the “effect of disopyramide on platinum accumulation rate in MDCK-hOCT1” value in the data set with MDCK-hOCT1 cells (disopyramide 150 μM) is on record as “two-fold decrease”.
